Measured values reported in ChEMBL document CHEMBL4184303, “Anti-inflammatory isoflavones and isoflavanones from the roots of Pongamia pinnata (L.) Pierre” (Bioorg Med Chem Lett, 2018).

What was measured:
BV-2 [1] = assay: Antiinflammatory activity in mouse BV2 cells assessed as inhibition of LPS-induced nitric oxide production; type: functional, cell-based
BV-2 [2] = assay: Cytotoxicity against mouse BV2 cells at 50 uM by MTT assay; type: cell-based; details: bv-2, 50 µM

| Structure (SMILES) | IC50 (BV-2 [1]) [µM] | Activity (BV-2 [2]) |
| --- | --- | --- |
| O=c1c(-c2ccc(O)cc2)coc2cc(O)ccc12 [DAIDZEIN] | > 50 | – |
| COc1cc(-c2coc3cc(O)ccc3c2=O)cc(O)c1-c1c(OC)cc([C@@H]2OO[C@@H]2CO)cc1OC | 19.7 | Non-Toxic |
| COc1cc(O)cc(-c2coc3cc(O)ccc3c2=O)c1 | > 50 | – |
| COc1cc(-c2coc3c(CC=C(C)C)c(O)c(CC=C(C)C)c(O)c3c2=O)ccc1O [FLEMINGSIN] | > 50 | – |
| COc1ccc([C@@]2(O)COc3cc(OC)ccc3C2=O)c(O)c1 | > 50 | – |
| COc1ccc([C@@H]2COc3cc(O)ccc3C2=O)c(OC)c1O [(3R)-VIOLANONE] | > 50 | – |
| COc1ccc([C@@H]2COc3cc(O)ccc3C2=O)c(O)c1 | 39.8 | Non-Toxic |
| COc1ccc(-c2coc3cc(O)ccc3c2=O)cc1 [FORMONONETIN] | > 50 | – |
| COc1ccc([C@@H]2COc3cc(O)ccc3C2=O)cc1 | > 50 | – |
| C[C@@H]1C[C@H]2[C@@H]3CCC4=CC(=O)C=C[C@]4(C)[C@@]3(F)[C@@H](O)C[C@]2(C)[C@@]1(O)C(=O)CO [DEXAMETHASONE] | 9.5 | – |
| COc1ccc([C@@H]2COc3cc(O)ccc3C2=O)c(OC)c1 [(3R)-SATIVANONE] | > 50 | – |
| COc1ccc(-c2coc3c(-c4c(OC)cc([C@@H]5OO[C@@H]5CO)cc4OC)c(O)ccc3c2=O)cc1O | 9 | Non-Toxic |
| COc1cc(O)c([C@@H]2COc3cc(O)ccc3C2=O)c(OC)c1OC | 35.8 | Non-Toxic |
| O=c1c(-c2ccc(O)cc2)coc2cc(O)cc(O)c12 [GENISTEIN] | 28.4 | Non-Toxic |

Continued, in another order:

| IC50 (BV-2 [1]) [µM] | Structure (SMILES) | Activity (BV-2 [2]) |
| --- | --- | --- |
| 46.6 | CC(C)=CCOc1ccc2c(=O)c(-c3ccc4c(c3)OCO4)coc2c1 | Non-Toxic |
| 36.9 | COc1ccc(-c2coc3cc(OCC=C(C)C)ccc3c2=O)cc1OC | Non-Toxic |
| > 50 | COc1ccc(-c2coc3cc(OCC=C(C)C)cc(O)c3c2=O)cc1 | – |
| 26.3 | COc1ccc(-c2coc3cc(O)cc(O)c3c2=O)cc1O [PRATENSEIN] | Non-Toxic |
| 45.2 | COc1ccc(-c2coc3cc(OCC=C(C)C)ccc3c2=O)cc1 | Non-Toxic |
| > 50 | COc1cc(-c2coc3cc(O)cc(O)c3c2=O)ccc1O [3'-O-METHYLOROBOL] | – |
| 16.5 | COc1cc(O)c2c(=O)c(-c3cc(OC)c(O)c(O)c3CC=C(C)C)coc2c1 | Non-Toxic |
| 35.7 | COc1ccc(-c2coc3c(OC)c(OCC=C(C)C)ccc3c2=O)cc1 | Non-Toxic |
| > 50 | COc1ccc(-c2coc3cc(OCC=C(C)C)cc(O)c3c2=O)cc1OC | – |
| > 50 | COc1cc(-c2coc3cc(O)ccc3c2=O)cc(OC)c1O | – |
| > 50 | COc1cc(O)cc(-c2coc3cc(O)c(OC)cc3c2=O)c1 | – |
| 39.8 | COc1cc(-c2coc3cc(O)ccc3c2=O)ccc1O | Non-Toxic |
